In patent publication US8735414B2 (priority 2009, dated 2014):

tested on: bicistronic HCV replicon (replicon RNA, GenBank Accession No. AJ242654); assay: HCV Replicon Assay; format: cell-based; conditions: Hepatitis C virus, 72 h, read-out: Replicon IC50

`N#Cc1c(-c2ccc(S(=O)(=O)NC(CF)CF)cn2)n(C2CCCCC2)c2ccc(Cl)cc12` [compound 79, 6-(5-chloro-3-cyano-1-cyclohexyl-1H-indol-2-yl)-N-(1,3-difluoropropan-2-yl)pyridine-3-sulfonamide] and `N#Cc1c(-c2ccc(S(=O)(=O)NC(CF)CF)cn2)n(C2CCCC2)c2ccc(Cl)cc12` [compound 72, 6-(5-chloro-3-cyano-1-cyclopentyl-1H-indol-2-yl)-N-(1,3-difluoropropan-2-yl)pyridine-3-sulfonamide] cannot be ordered by IC50: less than 0.5 µM for the first, less than 0.5 µM for the second.

`C[C@H](NS(=O)(=O)c1ccc(-c2c(C#N)c3ccc(CC(F)F)cc3n2C2CCCC2)nc1)C1CC1` [compound 594, 6-[3-cyano-1-cyclopentyl-6-(2,2-difluoroethyl)-1H-indol-2-yl]-N-[(1S)-1-cyclopropylethyl]pyridine-3-sulfonamide] and `C[C@H](NS(=O)(=O)c1ccc(-c2c(C#N)c3ccc(C4CC4)cc3n2C2CCCC2)nc1)C1CC1` [compound 433, 6-(3-cyano-1-cyclopentyl-6-cyclopropyl-1H-indol-2-yl)-N-[(1S)-1-cyclopropylethyl]pyridine-3-sulfonamide] cannot be ordered by IC50: less than 0.5 µM for the first, less than 0.5 µM for the second.

`CSc1ccc2c(C#N)c(-c3ccc(S(=O)(=O)NC(CF)CF)cn3)n(C3CCC3)c2c1` [compound 161, 6-[3-cyano-1-cyclobutyl-6-(methylsulfanyl)-1H-indol-2-yl]-N-(1,3-difluoropropan-2-yl)pyridine-3-sulfonamide] and `N#Cc1c(-c2ccc(S(=O)(=O)NC(CF)CF)cn2)n(C2CCC2)c2cc(CF)ccc12` [compound 318, 6-[3-cyano-1-cyclobutyl-6-(fluoromethyl)-1H-indol-2-yl]-N-(1,3-difluoropropan-2-yl)pyridine-3-sulfonamide] cannot be ordered by IC50: less than 0.5 µM for the first, less than 0.5 µM for the second.

First: C[C@H](NS(=O)(=O)c1ccc(-c2c(C(N)=O)c3cc(F)ccc3n2-c2ccccn2)nc1)C(F)(F)F [compound 748, 5-fluoro-1-(pyridin-2-yl)-2-(5-{[(2S)-1,1,1-trifluoropropan-2-yl]sulfamoyl}pyridin-2-yl)-1H-indole-3-carboxamide]
Second: CCc1cc2c(cc1F)c(C(N)=O)c(-c1ccc(S(=O)(=O)N[C@@H](C)C(F)(F)F)cn1)n2-c1cccc(C(F)(F)F)c1 [compound 1026, 6-ethyl-5-fluoro-1-[3-(trifluoromethyl)phenyl]-2-(5-{[(2S)-1,1,1-trifluoropropan-2-yl]sulfamoyl}pyridin-2-yl)-1H-indole-3-carboxamide]
The IC50 of the first is lower: less than 0.5 µM for the first, 0.5 to 2 µM for the second.

`C[C@H](NS(=O)(=O)c1ccc(-c2c(C#N)c3ccc(Cl)cc3n2C2CCCC2)nc1)C(F)(F)F` [compound 364, 6-(6-chloro-3-cyano-1-cyclopentyl-1H-indol-2-yl)-N-[(2S)-1,1,1-trifluoropropan-2-yl]pyridine-3-sulfonamide] and `C[C@H](NS(=O)(=O)c1ccc(-c2c(C#N)c3cc(F)ccc3n2C2CCCC2)nc1)C(F)(F)F` [compound 435, 6-(3-cyano-1-cyclopentyl-5-fluoro-1H-indol-2-yl)-N-[(2S)-1,1,1-trifluoropropan-2-yl]pyridine-3-sulfonamide] cannot be ordered by IC50: less than 0.5 µM for the first, less than 0.5 µM for the second.

Compared with `Cc1cc2c(cc1F)c(Cl)c(-c1ccc(S(=O)(=O)N[C@@H](C)C(F)(F)F)cn1)n2-c1nncs1` [compound 972, 6-[3-chloro-5-fluoro-6-methyl-1-(1,3,4-thiadiazol-2-yl)-1H-indol-2-yl]-N-[(2S)-1,1,1-trifluoropropan-2-yl]pyridine-3-sulfonamide], `Cc1cnc(-n2c(-c3ccc(S(=O)(=O)N[C@@H](C)C(F)(F)F)cn3)c(C#N)c3cc(F)c(C)cc32)cn1` [compound 865, 6-[3-cyano-5-fluoro-6-methyl-1-(5-methylpyrazin-2-yl)-1H-indol-2-yl]-N-[(2S)-1,1,1-trifluoropropan-2-yl]pyridine-3-sulfonamide] is lower in IC50: 2 to 5 µM for the first, less than 0.5 µM for the second. The second is the more potent here.

First: CCc1cc2c(cc1F)c(C(=O)O)c(-c1cnc(NS(=O)(=O)C(C)(C)C)nc1)n2C1CCCCC1 [compound 1029, 2-{2-[(tert-butylsulfonyl)amino]pyrimidin-5-yl}-1-cyclohexyl-6-ethyl-5-fluoro-1H-indole-3-carboxylic acid]
Second: Cc1cc2c(cc1F)c(C(=O)O)c(-c1ncc(S(=O)(=O)N[C@@H](C)C(F)(F)F)cn1)n2C1CCC1 [compound 775, 1-cyclobutyl-5-fluoro-6-methyl-2-(5-{[(2S)-1,1,1-trifluoropropan-2-yl]sulfamoyl}pyrimidin-2-yl)-1H-indole-3-carboxylic acid]
The IC50 of the first is higher: 2 to 5 µM for the first, 0.5 to 2 µM for the second.

`[2H]C([2H])(C)c1cc2c(cc1F)c(C#N)c(-c1ccc(S(=O)(=O)N[C@@]([2H])(C)C(F)(F)F)cn1)n2-c1ncccn1` [compound 1079, 6-{3-cyano-6-[(1,1-dideuterium)ethyl]-5-fluoro-1-(pyrimidin-2-yl)-1H-indol-2-yl}-N-[(2S)-1,1,1-trifluoro(2-deuterium)propan-2-yl]pyridine-3-sulfonamide] and `[2H]C([2H])([2H])c1cc2c(cc1F)c(C#N)c(-c1ccc(S(=O)(=O)N[C@@]([2H])(C)C(F)(F)F)cn1)n2-c1ncccn1` [compound 1107, 6-[3-cyano-5-fluoro-6-(1,1,1-trideuterium)methyl-1-(pyrimidin-2-yl)-1H-indol-2-yl]-N-[(2S)-1,1,1-trifluoro(2-deuterium)propan-2-yl]pyridine-3-sulfonamide] cannot be ordered by IC50: less than 0.5 µM for the first, less than 0.5 µM for the second.

`CCc1cc2c(cc1F)c(C#N)c(-c1ccc(S(=O)(=O)N[C@@H](C)C(F)(F)F)cn1)n2-c1ccc(C)cn1` [compound 931, 6-[3-cyano-6-ethyl-5-fluoro-1-(5-methylpyridin-2-yl)-1H-indol-2-yl]-N-[(2S)-1,1,1-trifluoropropan-2-yl]pyridine-3-sulfonamide] and `COc1ccnc(-n2c(-c3ccc(S(=O)(=O)N[C@@H](C)C(F)(F)F)cn3)c(C#N)c3cc(F)c(C)cc32)c1` [compound 816, 6-[3-cyano-5-fluoro-1-(4-methoxypyridin-2-yl)-6-methyl-1H-indol-2-yl]-N-[(2S)-1,1,1-trifluoropropan-2-yl]pyridine-3-sulfonamide] cannot be ordered by IC50: less than 0.5 µM for the first, less than 0.5 µM for the second.

`[2H][C@@](C)(NS(=O)(=O)c1ccc(-c2c(C#N)c3cc(F)c(C)cc3n2C2CCC2)nc1)C(F)(F)F` [compound 1113, 6-(3-cyano-1-cyclobutyl-5-fluoro-6-methyl-1H-indol-2-yl)-N-[(2S)-1,1,1-trifluoro(2-deuterium)propan-2-yl]pyridine-3-sulfonamide] and `Cc1cc2c(cc1F)c(C#N)c(-c1ccc(S(=O)(=O)NC3(C(F)(F)F)CC3)cn1)n2C1CCCC1` [compound 644, 6-(3-cyano-1-cyclopentyl-5-fluoro-6-methyl-1H-indol-2-yl)-N-[1-(trifluoromethyl)cyclopropyl]pyridine-3-sulfonamide] cannot be ordered by IC50: less than 0.5 µM for the first, less than 0.5 µM for the second.

`Cc1nc(NS(=O)(=O)C(C)(C)C)ccc1-c1c(C(=O)O)c2cc(F)c(OC(F)F)cc2n1[C@H](C)C1CC1` [compound 1094, 2-{6-[(tert-butylsulfonyl)amino]-2-methylpyridin-3-yl}-1-[(1R)-1-cyclopropylethyl]-6-(difluoromethoxy)-5-fluoro-1H-indole-3-carboxylic acid] and `CCc1cc2c(cc1F)c(C#N)c(-c1ccc(NS(=O)(=O)C(C)(C)C)nc1)n2[C@@H](C)C1CC1` [compound 1082, N-(5-{3-cyano-1-[(1S)-1-cyclopropylethyl]-6-ethyl-5-fluoro-1H-indol-2-yl}pyridin-2-yl)-2-methylpropane-2-sulfonamide] cannot be ordered by IC50: less than 0.5 µM for the first, less than 0.5 µM for the second.

`N#Cc1c(-c2ccc(S(=O)(=O)NC(CF)CF)cn2)n(CC2CC2)c2cc(CC(F)F)ccc12` [compound 616, 6-[3-cyano-1-(cyclopropylmethyl)-6-(2,2-difluoroethyl)-1H-indol-2-yl]-N-(1,3-difluoropropan-2-yl)pyridine-3-sulfonamide] and `CC1(NS(=O)(=O)c2ccc(-c3c(C#N)c4cc(CC(F)F)ccc4n3C3CCC3)nc2)CC1` [compound 696, 6-[3-cyano-1-cyclobutyl-5-(2,2-difluoroethyl)-1H-indol-2-yl]-N-(1-methylcyclopropyl)pyridine-3-sulfonamide] cannot be ordered by IC50: less than 0.5 µM for the first, less than 0.5 µM for the second.

`COC(=O)c1c(-c2ncc(S(=O)(=O)N[C@@H](C)C(F)(F)F)cn2)n(C2CCC2)c2cc(C)c(F)cc12` [compound 774, methyl 1-cyclobutyl-5-fluoro-6-methyl-2-(5-{[(2S)-1,1,1-trifluoropropan-2-yl]sulfamoyl}pyrimidin-2-yl)-1H-indole-3-carboxylate] and `COC(=O)c1c(-c2ccc(S(=O)(=O)N[C@@H](C)C(F)(F)F)cn2)n(C2CCC2)c2cc(C)c(F)cc12` [compound 771, methyl 1-cyclobutyl-5-fluoro-6-methyl-2-(5-{[(2S)-1,1,1-trifluoropropan-2-yl]sulfamoyl}pyridin-2-yl)-1H-indole-3-carboxylate] cannot be ordered by IC50: less than 0.5 µM for the first, less than 0.5 µM for the second.

Compared with `[2H]C(C)(C)NS(=O)(=O)c1ccc(-c2c(C#N)c3cc(F)c(C([2H])([2H])[2H])cc3n2CC2CC2)nc1` [compound 1119, 6-[3-cyano-1-(cyclopropylmethyl)-5-fluoro-6-(1,1,1-trideuterium)methyl-1H-indol-2-yl]-N-[(2-deuterium)propan-2-yl]pyridine-3-sulfonamide], `Cc1cc2c(cc1F)cc(-c1ccc(S(=O)(=O)N[C@@H](C)C(F)(F)F)cn1)n2-c1cscn1` [compound 957, 6-[5-fluoro-6-methyl-1-(1,3-thiazol-4-yl)-1H-indol-2-yl]-N-[(2S)-1,1,1-trifluoropropan-2-yl]pyridine-3-sulfonamide] is higher in IC50: less than 0.5 µM for the first, 0.5 to 2 µM for the second.

`NC(=O)c1c(-c2ccc(S(=O)(=O)NC(CF)CF)cn2)n(C2CCC2)c2cc(C3CC3)ccc12` [compound 582, 1-cyclobutyl-6-cyclopropyl-2-{5-[(1,3-difluoropropan-2-yl)sulfamoyl]pyridin-2-yl}-1H-indole-3-carboxamide] and `C[C@H](NS(=O)(=O)c1ccc(-c2cc3cc(F)c(OC(F)F)cc3n2C2CCC2)nc1)C(F)(F)F` [compound 727, 6-[1-cyclobutyl-6-(difluoromethoxy)-5-fluoro-1H-indol-2-yl]-N-[(2S)-1,1,1-trifluoropropan-2-yl]pyridine-3-sulfonamide] cannot be ordered by IC50: less than 0.5 µM for the first, less than 0.5 µM for the second.
